Test results reported in patent US20110281957A1, “ENHANCED BIOACTIVE FORMULATIONS OF RESVERATROL” (Lipoprotein Technologies, Inc., priority 2008, published 2011).
Read-outs that look alike come from different tables or passages of the source. Each block holds one compound with its values, some of them ahead of it.

What was measured:
[1] = Solubility in pH 7.4 Hank's Balanced Salt Solution, LC/MS/MS; assay type: physicochemical; conditions: pH 7.4 buffer, shaken 2 hours, stood overnight at room temperature
Protocol: The mixtures were shaken for 2 hours using a benchtop vortexer and left to stand overnight at room temperature. […] After vortexing and standing overnight, the resveratrol gel formulation mixture was centrifuged at 14,000 rpm for 10 minutes. The filtrate or supernatant was sampled twice, consecutively, and diluted 10, 100, and 10.000-fold in a mixture of 50:50 assay buffer:acetonitrile prior to analysis. Both mixtures were assayed by LC/MS/MS using electrospray ionization against the standards prepared in a mixture of 50:50 assay buffer:acetonitrile. Standard concentrations ranged from 1.0 μM down to 3.0 nM.

[2] = system: ovarian cancer (A-2780) cells; conditions: A-2780 cells in vitro; cited from earlier work
[3] = cited from earlier work
[4] = system: breast cancer (MCF-7) cells; conditions: MCF-7 cells in vitro; cited from earlier work
[5] = Visual clarity of the resveratrol/surfactant mixture on addition to water; assay type: physicochemical; conditions: polyoxyl 40 castor oil (macrogoglycerol hydroxystearate) as the surfactant
Protocol: Water soluble compositions of trans-resveratrol were formulated containing the non-ionic surfactant macrogolglycerol hydroxystearate (polyoxyl 40 castor oil). By heating and stirring this polyoxyl castor oil with a powdered synthetic 99% trans-resveratrol, a clear viscous solution was formed containing dissolved trans-resveratrol (hereinafter referred to as “resveratrol gel formulation”). The resveratrol gel formulation consisted of macrogolglycerol hydroxystearate 40 (50 ml) and powdered trans-resveratrol (3 grams), representing a concentration of 6% for the resveratrol in the surfactant.
The following formulation was prepared as described below: 500 mg of purified resveratrol 99% derived from polygonum cuspidatum (Japanese knotweed) was dissolved in 25 ml of warm macrogoglycerol hydroxystearate until a clear gel was formed. 250 mg of ascorbic acid was added to the clear gel, which was then slowly added to 100 ml of warm water.

[6] = humans, up to 4 g; cited from earlier work

solubility ([1]; Hank's Balanced Salt Solution buffer, pH 7.4, aqueous buffer, thermodynamic from solid, average of 2 replicates, read-out: Solubility AVG): 0.5 µM
solubility ([1]; Hank's Balanced Salt Solution buffer, pH 7.4, aqueous buffer, thermodynamic from solid, replicate 1, read-out: Solubility Rep 1): 0.4 µM
solubility ([1]; Hank's Balanced Salt Solution buffer, pH 7.4, aqueous buffer, thermodynamic from solid, replicate 2, read-out: Solubility Rep 2): 0.61 µM
solubility ([1]; average of 2 replicates, read-out: Solubility AVG): 0.505 µM
SMILES: Oc1ccc(/C=C/c2cc(O)cc(O)c2)cc1 [Powdered Resveratrol, trans-3,5,4′-trihydroxystilbene]

Maximum concentration in surfactant for a crystal-clear solution in water [5]: ≤ 20%
SMILES: Oc1ccc(C=Cc2cc(O)cc(O)c2)cc1 [Resveratrol, 3,5,4′-trihydroxystilbene]
Inhibition of proliferation [2]: inhibited the proliferation
Solubility in water [3]: insoluble in water
Inhibition of proliferation [4]: inhibited the proliferation

SMILES: O=c1c(O)c(-c2ccc(O)c(O)c2)oc2cc(O)cc(O)c12 [quercetin]
Detection in plasma after oral administration [6]: No quercetin could be found in plasma
